The values below come from US12083101B2, “Biaryl derivatives as YAP/TAZ-TEAD protein-protein interaction inhibitors” (Novartis AG, priority 2020, dated 2024).

SMILES strings stand for the structures.

Chain of Avi-humanTEAD4 217-434 / Cy5 labeled humanYAP 60-100 (Q15561 217-434): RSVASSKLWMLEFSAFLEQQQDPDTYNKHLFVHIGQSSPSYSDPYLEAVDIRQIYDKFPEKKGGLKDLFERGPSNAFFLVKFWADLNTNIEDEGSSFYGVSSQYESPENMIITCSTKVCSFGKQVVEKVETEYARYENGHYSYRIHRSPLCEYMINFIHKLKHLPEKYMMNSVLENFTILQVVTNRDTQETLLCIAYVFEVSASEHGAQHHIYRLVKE

The assay addresses Avi-humanTEAD4 217-434 / Cy5 labeled humanYAP 60-100 (Homo sapiens (Human), UniProt Q15561). Description: TR-FRET YAP-TEAD4 in-vitro biochemical assay. Conditions: 1 nM Avi-humanTEAD4 217-434, 20 nM Cy5-humanYAP 60-100, 1 h room temperature. The class given is binding.
Compound `COC(=O)[C@H]1CC[C@H](NC[C@@]2(c3ccccc3)Cc3c(ccc(Cl)c3-c3c(C(N)=O)ccc(F)c3F)O2)CC1` (relative stereo) [Example 137b, methyl (trans)-4-((((2S,4S)-4-(6-carbamoyl-2,3-difluorophenyl)-5-chloro-2-phenyl-2,3-dihydrobenzofuran-2-yl)methyl)amino)cyclohexane-1-carboxylate] yielded an IC50 of 6 nM.
The result for `CNC(=O)[C@H]1CC[C@H](NC[C@@]2(c3ccccc3)Cc3c(ccc(Cl)c3-c3c(F)cccc3C(N)=O)O2)CC1` (relative stereo) [Example 139a, 2-((2S,4S)-5-Chloro-2-((((trans)-4-(methylcarbamoyl)cyclohexyl)amino)methyl)-2-phenyl-2,3-dihydrobenzofuran-4-yl)-3-fluorobenzamide] reads 21 nM; that for `CNC(=O)[C@H]1CC[C@@H](NC[C@@]2(c3ccccc3)Cc3c(ccc(Cl)c3-c3c(F)cccc3C(N)=O)O2)CC1` (relative stereo) [Example 139b, 2-((2S,4S)-5-chloro-2-((((cis)-4-(methylcarbamoyl)cyclohexyl)amino)methyl)-2-phenyl-2,3-dihydrobenzofuran-4-yl)-3-fluorobenzamide], 11 nM; that for `NC(=O)c1ccc(OC(F)F)c(F)c1-c1c(Cl)c(F)cc2c1C[C@@](CNC1CCC(O)(CF)CC1)(c1ccccc1)O2` (single isomer, unassigned) [Example 55a], below 1 nM.
As to `NC(=O)c1ccc(OC(F)F)c(F)c1-c1c(Cl)c(F)cc2c1C[C@@](CNC1CCC(O)(CF)CC1)(c1ccccc1)O2` (single isomer, unassigned) [Example 55b], it took 2 nM to reach half-maximal inhibition (IC50).
`CS(=O)(=O)NC1CCC(NC[C@@]2(c3ccccc3)Cc3c(cc(F)c(Cl)c3-c3c(C(N)=O)ccc(OC(F)F)c3F)O2)CC1` (single isomer, unassigned) [Example 57a] yielded an IC50 of 3 nM.
The result for `CS(=O)(=O)NC1CCC(NC[C@@]2(c3ccccc3)Cc3c(cc(F)c(Cl)c3-c3c(C(N)=O)ccc(OC(F)F)c3F)O2)CC1` (single isomer, unassigned) [Example 57b] reads 6 nM; that for `NC(=O)c1ccc(OC(F)F)c(F)c1-c1c(Cl)c(F)cc2c1C[C@@](CNC1CCC3(CCC(=O)N3)CC1)(c1ccccc1)O2` (single isomer, unassigned) [Example 59a], 6 nM.
To `NC(=O)c1ccc(OC(F)F)c(F)c1-c1c(Cl)c(F)cc2c1C[C@@](CNC1CCC3(CCC(=O)N3)CC1)(c1ccccc1)O2` (single isomer, unassigned) [Example 59b] belongs 5 nM.
To `NC(=O)c1ccc(OC(F)F)c(F)c1-c1c(Cl)c(F)cc2c1C[C@@](CNC1CCC(CO)CC1)(c1ccccc1)O2` (single isomer, unassigned) [Example 61a] belongs 8 nM.
For `NC(=O)c1ccc(OC(F)F)c(F)c1-c1c(Cl)c(F)cc2c1C[C@@](CNC1CCC(CO)CC1)(c1ccccc1)O2` (single isomer, unassigned) [Example 61b], half-maximal inhibition (IC50) was put at 10 nM.
In turn, `NC(=O)c1ccc(OC(F)F)c(F)c1-c1c(Cl)c(F)cc2c1C[C@@](CNC1CC3(CC(O)C3)C1)(c1ccccc1)O2` (single isomer, unassigned) [Example 85b] gave an IC50 of 7 nM.
Compound `COc1ccc(C(N)=O)c(-c2c(Cl)ccc3c2OC(CN)(c2ccccc2)C3)c1F` (single isomer, unassigned) [Example 132, 2-(2-(Aminomethyl)-6-chloro-2-phenyl-2,3-dihydrobenzofuran-7-yl)-3-fluoro-4-methoxybenzamide] had an IC50 of 2080 nM.
`NCC1(c2ccccc2)Oc2ccc(Cl)c(-c3c(F)cccc3C(N)=O)c2O1` (single isomer, unassigned) [Example 133, 2-(2-(Aminomethyl)-5-chloro-2-phenylbenzo[d][1,3]dioxol-4-yl)-3-fluorobenzamide] had an IC50 of 695 nM.
`COc1ccc(C(N)=O)c(-c2c(Cl)c(F)cc3c2C[C@](c2ccccc2)(C2COCCN2)O3)c1F` (single isomer, unassigned) [Example 163] showed an IC50 of 130 nM.
Turning to `NC[C@@]1(c2ccccc2)Cc2c(ccc(Cl)c2-c2c(F)cccc2C(N)=O)O1` (stereo in doubt) [Example 4a, 2-((2S*,4S*)-2-(Aminomethyl)-5-chloro-2-phenyl-2,3-dihydrobenzofuran-4-yl)-3-fluorobenzamide], the IC50 worked out at 34 nM.
For `NC[C@]1(c2ccccc2)Cc2c(ccc(Cl)c2-c2c(F)cccc2C(N)=O)O1` (stereo in doubt) [Example 4b, 2-((2S*,4R*)-2-(aminomethyl)-5-chloro-2-phenyl-2,3-dihydrobenzofuran-4-yl)-3-fluorobenzamide], the IC50 is above 100000 nM.
In turn, `NCCOc1cccc(F)c1-c1c(Cl)ccc2c1C[C@@](CN)(c1ccccc1)O2` [Example 3a, 2-(2-((2S,4S)-2-(Aminomethyl)-5-chloro-2-phenyl-2,3-dihydrobenzofuran-4-yl)-3-fluorophenoxy)ethanamine] gave an IC50 of 16 nM.
`NCCOc1cccc(F)c1-c1c(Cl)ccc2c1C[C@](CN)(c1ccccc1)O2` [Example 3b, 2-(2-((2R,4R)-2-(aminomethyl)-5-chloro-2-phenyl-2,3-dihydrobenzofuran-4-yl)-3-fluorophenoxy)ethanamine] displayed an IC50 of 18000 nM.
As for `NC[C@@]1(c2ccccc2)Cc2c(cc(F)c(Cl)c2-c2c(F)cccc2C(N)=O)O1` [Example 32b, 2-((2S,4R)-2-(aminomethyl)-5-chloro-6-fluoro-2-phenyl-2,3-dihydrobenzofuran-4-yl)-3-fluorobenzamide], the IC50 was above 100000 nM.
For the compound `NC(=O)c1ccc(OC(F)F)c(F)c1-c1c(Cl)c(F)cc2c1C[C@@](CNC1CC3(CC(O)C3)C1)(c1ccccc1)O2` (stereo partly drawn) [Example 85a, 2-((2S,4S)-5-Chloro-6-fluoro-2-(((6-hydroxyspiro[3.3]heptan-2-yl)amino)methyl)-2-phenyl-2,3-dihydrobenzofuran-4-yl)-4-(difluoromethoxy)-3-fluorobenzamide], half-maximal inhibition (IC50) was put at 4 nM.
The result for `N#Cc1ccc2c(c1-c1ccccc1)C[C@@](CN[C@H]1CC[C@H](O)CC1)(c1ccccc1)O2` [Example 130, (S)-2-((((trans)-4-Hydroxycyclohexyl)amino)methyl)-2,4-diphenyl-2,3-dihydrobenzofuran-5-carbonitrile] reads 797 nM; that for `CNC(=O)c1cnc(OCC(=O)O)c(F)c1-c1c(Cl)c(F)cc2c1C[C@](c1ccccc1)([C@@H]1CCCN1)O2` [Example 156, 2-((4-((2S,4S)-5-Chloro-6-fluoro-2-phenyl-2-((S)-pyrrolidin-2-yl)-2,3-dihydrobenzofuran-4-yl)-3-fluoro-5-(methylcarbamoyl)pyridin-2-yl)oxy)acetic acid], 11 nM.
The result for `CNC(=O)c1cnc(O)c(F)c1-c1c(Cl)c(F)cc2c1C[C@](c1ccccc1)([C@@H]1CCCN1)O2` [Example 157, 4-((2S,4S)-5-chloro-6-fluoro-2-phenyl-2-((S)-pyrrolidin-2-yl)-2,3-dihydrobenzofuran-4-yl)-5-fluoro-6-hydroxy-N-methylnicotinamide] reads 75 nM; that for `Fc1cc2c(c(-c3ccccc3)c1Cl)C[C@](c1ccccc1)([C@@H]1C[C@@H](F)CN1)O2` [Example 160, (2S,4R)-2-((S)-5-chloro-6-fluoro-2,4-diphenyl-2,3-dihydrobenzofuran-2-yl)-4-fluoropyrrolidine], 4400 nM.

The IC50 is the concentration that gives 50% inhibition. High values mean weaker potency in that assay, low ones greater potency in that assay.
